# Where two headings read alike, the source gives them in different places.
# Columns and labels:
# [1] = test system: coronary flow and blood pressure; assay: Action on coronary flow and blood pressure (intravenous administration into dogs); type: in vivo, dog; settings: 0.2 mg/kg
# Protocol: Dogs weighing 11 to 24 kg were anaesthetized with pentobarbital sodium (35 mg/kg, intraperitoneal) and, under supportive respiration, a right thoractomy was performed by removing the fourth rib. The pericardial membrane was then incised to expose the heart. The coronary sinus flow was measured with a cannula inserted from the right auricle into the coronary sinus and connected to an electromagnetic flowmeter (Nihon Kohden K.K., MF-26.) The outflowing blood was returned to the femoral vein through a rubber tubing.
# The blood pressure was measured with a pressure transducer (Nihon Kohden K.K., MPU-0.5) connected to the cannula inserted into the femoral artery, and was recorded with a multipurpose polygraph (Nihon Kohden K.K., RM-85) which also recorded the coronary blood flow. The heart rate was calculated based on the electrocardiogram. The test compound was dissolved in dog serum and injected into the femoral vein.
# [2] = test system: coronary flow and blood pressure; assay: Activity on intraduodenal administration to dogs (coronary flow, blood pressure, heart rate); type: in vivo, dog; settings: 10 mg/kg
# Protocol: Dogs weighing 12 to 22 kg were anaesthetized with pentobarbital sodium [35 mg/kg, i.p.] and under supportive respiration, a left thoractomy was performed at the fourth interspace. The pericardium was incised to expose the heart and the blood flow through circumflex branch of left coronary was measured with an electromagnetic flowmeter (Nihon Kohden K.K., MF-26). The blood pressure was measured from a cannula inserted into the carotid artery through a pressure transducer (Nihon Kohden K.K., MPU-0.5), while the heart rate was calculated based on the electrocardiogram. The abdomen was sutured with the end of the cannula left out of the body and the test compound was administered. The test compound was diluted with 0.5% CMC to a concentraion of 10 mg/ml and administered at a dose of 10 mg/kg.
# [3] = target: T1, taenia coli (Cavia porcellus); assay: Calcium antagonist activity (pA2), isolated guinea-pig taenia coli
# T1 construct: a test was conducted using isolated taenia colis about 2 cm long; from tissue; host or cells: isolated guinea-pig taenia coli
# Protocol: (§1) Male guinea-pigs weighing 350-450 g each were slaughtered and a test was conducted using isolated taenia colis about 2 cm long. A taenia coli was suspended in a Magnus chamber (Locke solution, 25°±2° C., aerated) and the contractile response of the taenia coli was recodered through an isotonic transducer. To the decalcified taenia coli was cumulatively added 0.1 to 100 mM of calcium in the presence of 6×10^-3 g/ml of K^+ to obtain a dose-contraction curve for calcium and, after the taenia coli was decalcified again, a dose-contraction curve for calcium was determined in the presence of the test compound. Based on the difference between the responses, the pA2 of calcium antagonist activity of the test compound was computed.
# [4] = test system: isolated guinea-pig heart; assay: Action on coronary blood flow, isolated guinea-pig heart (Langendorff); settings: Cavia porcellus, dosage 10 γ/heart, read-out: Maximum increase in coronary flow (Δ% ± standard error)
# Protocol: Male guinea-pigs with body weights from 400 to 500 g were slaughtered and promptly thoractomized. After the ascending aorta was cannulated, the heart was enucleated. By the method of Langendorff, this isolated heart was perfused with the Krebs-Henseleit fluid oxygenated with a gaseous mixture of 95% O2 and 5% CO2 at a fluid temperature of 34°±1° C. and perfusion pressure of 60 cm H2 O, and the test compound was infused. The coronary flows before and after infusion were measured and the percent gain in coronary flow was obtained. The coronary flow was measured with a square-wave electromagnetic flowmeter (Nihon Kohden, MF-26) with an extracorporeal probe (Nihon Kohden, FE) set at the top of the cannula and recorded with a multipurpose polygraph (Nihon Kohden, RM-85). The test compound was dissolved in propylene glycol to a concentration of 100 γ/ml and 0.1 ml of the solution was infused at the rate of 0.1 ml/min.
# [5] = Acute toxicity test in mice, intraperitoneal; settings: mouse, in vivo, ip, male ddY mice, deaths within 72 hours
# Protocol: An acute toxicity test was performed in male ddY mice (in groups of 5 animals, body weights 20±2 g) by the intraperitoneal administration of a test compound.
# A suspension of each compound in 0.5% carboxymethylcellulose was administered, the deaths within 72 hours were counted and the LD50 values were calculated by the method of Weil.
# [6] = target: T2, taenia coli (Cavia porcellus, UniProt O35505); assay: Calcium antagonist activity (pA2), isolated guinea-pig taenia coli; settings: 5 cases, read-out: pA2 (mean ± standard error) of calcium antagonist activity (converted)
# T2 construct: a test was conducted using isolated taenia colis about 2 cm long; from tissue; host or cells: isolated guinea-pig taenia coli
# Protocol: as §1
# [7] = time after administration 5 (unit not given)
# [8] = time after administration 30 (unit not given)
# [9] = time after administration 60 (unit not given)
# [10] = time after administration 120 (unit not given)
# T2 sequence (O35505 whole entry): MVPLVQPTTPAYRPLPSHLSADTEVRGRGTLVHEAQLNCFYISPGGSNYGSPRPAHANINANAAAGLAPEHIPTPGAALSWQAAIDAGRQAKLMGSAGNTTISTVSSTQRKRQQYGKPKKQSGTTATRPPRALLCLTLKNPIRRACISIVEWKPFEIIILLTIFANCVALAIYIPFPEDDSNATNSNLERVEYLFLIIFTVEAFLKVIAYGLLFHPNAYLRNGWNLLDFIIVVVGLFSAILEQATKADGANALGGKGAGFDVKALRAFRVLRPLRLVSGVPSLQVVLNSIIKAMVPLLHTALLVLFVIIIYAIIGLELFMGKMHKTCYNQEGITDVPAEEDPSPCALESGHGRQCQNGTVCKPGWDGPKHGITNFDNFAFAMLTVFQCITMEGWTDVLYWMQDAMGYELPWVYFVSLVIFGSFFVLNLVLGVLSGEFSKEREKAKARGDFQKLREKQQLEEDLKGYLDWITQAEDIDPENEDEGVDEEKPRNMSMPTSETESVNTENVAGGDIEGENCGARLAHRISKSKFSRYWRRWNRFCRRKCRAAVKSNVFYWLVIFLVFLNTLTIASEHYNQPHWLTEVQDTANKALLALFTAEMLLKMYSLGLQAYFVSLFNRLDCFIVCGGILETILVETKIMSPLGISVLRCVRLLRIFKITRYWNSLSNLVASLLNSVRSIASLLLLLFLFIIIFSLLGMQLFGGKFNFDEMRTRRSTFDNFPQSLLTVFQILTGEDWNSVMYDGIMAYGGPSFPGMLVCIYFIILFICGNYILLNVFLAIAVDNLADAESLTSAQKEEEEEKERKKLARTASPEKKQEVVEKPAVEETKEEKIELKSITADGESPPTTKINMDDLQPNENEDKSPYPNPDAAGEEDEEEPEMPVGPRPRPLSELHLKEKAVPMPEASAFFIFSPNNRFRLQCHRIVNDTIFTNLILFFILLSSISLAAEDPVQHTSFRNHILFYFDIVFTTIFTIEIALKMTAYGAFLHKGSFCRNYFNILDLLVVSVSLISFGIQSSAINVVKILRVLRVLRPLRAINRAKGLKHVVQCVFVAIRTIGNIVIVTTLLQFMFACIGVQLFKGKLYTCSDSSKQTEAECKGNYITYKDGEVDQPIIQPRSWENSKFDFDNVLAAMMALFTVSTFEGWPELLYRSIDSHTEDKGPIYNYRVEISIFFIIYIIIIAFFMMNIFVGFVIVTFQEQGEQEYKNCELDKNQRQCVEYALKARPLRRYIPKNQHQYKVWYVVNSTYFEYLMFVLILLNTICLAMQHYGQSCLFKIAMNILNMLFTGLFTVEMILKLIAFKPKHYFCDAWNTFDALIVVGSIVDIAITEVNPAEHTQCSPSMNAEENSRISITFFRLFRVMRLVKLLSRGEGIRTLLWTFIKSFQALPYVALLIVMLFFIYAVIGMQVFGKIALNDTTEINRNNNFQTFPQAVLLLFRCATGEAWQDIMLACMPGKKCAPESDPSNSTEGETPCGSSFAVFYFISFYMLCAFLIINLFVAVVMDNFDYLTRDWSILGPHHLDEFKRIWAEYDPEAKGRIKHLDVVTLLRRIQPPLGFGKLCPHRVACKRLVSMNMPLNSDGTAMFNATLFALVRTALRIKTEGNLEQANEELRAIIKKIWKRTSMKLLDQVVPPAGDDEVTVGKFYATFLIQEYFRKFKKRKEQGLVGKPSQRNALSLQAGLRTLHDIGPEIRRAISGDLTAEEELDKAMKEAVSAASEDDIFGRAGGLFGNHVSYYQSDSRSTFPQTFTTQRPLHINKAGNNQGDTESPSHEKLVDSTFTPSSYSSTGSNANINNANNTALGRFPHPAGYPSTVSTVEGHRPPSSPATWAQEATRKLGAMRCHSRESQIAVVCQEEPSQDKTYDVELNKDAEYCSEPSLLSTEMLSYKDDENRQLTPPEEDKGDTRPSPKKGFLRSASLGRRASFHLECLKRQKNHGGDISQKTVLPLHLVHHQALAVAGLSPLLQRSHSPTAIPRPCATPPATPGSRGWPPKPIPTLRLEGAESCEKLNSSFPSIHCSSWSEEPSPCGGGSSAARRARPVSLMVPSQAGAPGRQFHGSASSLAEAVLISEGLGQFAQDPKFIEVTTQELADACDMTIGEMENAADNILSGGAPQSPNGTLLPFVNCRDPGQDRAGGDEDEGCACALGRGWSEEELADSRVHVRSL
# T1 sequence (O35505 whole entry): as above
structure (smiles),measurement,setting,value
CCOP(=O)(Cc1ccc(-c2nc3ccccc3s2)nc1)OCC [2-(benzothiazol-2-yl)-5-diethoxyphosphinylmethylpyridine],Change in heart rate (Δbeats/min. ± standard error),[1],-16.3 ± 3.2 Δbeats/min.
same,Increase in coronary senus outflow (Δ% ± standard error),[1],74.4 ± 7.3 Δ%
same,Mean change in blood pressure (ΔmmHg ± standard error),[1],-14.5 ± 5.4 ΔmmHg
same,Change in heart rate (Δbeats/min. ± standard error),[2]; [7],-5.6 ± 1.2 Δbeats/min.
same,Increase in blood flow through circumflex branch of left coronary (Δ% ± standard error),[2]; [7],14.3 ± 7.4 Δ%
same,Mean change in blood pressure (ΔmmHg ± standard error),[2]; [7],-12.9 ± 3.4 ΔmmHg
same,Change in heart rate (Δbeats/min. ± standard error),[2]; [8],-23.3 ± 3.8 Δbeats/min.
same,Increase in blood flow through circumflex branch of left coronary (Δ% ± standard error),[2]; [8],37.7 ± 9.6 Δ%
same,Mean change in blood pressure (ΔmmHg ± standard error),[2]; [8],-12.4 ± 2.3 ΔmmHg
same,Change in heart rate (Δbeats/min. ± standard error),[2]; [9],-26.9 ± 3.8 Δbeats/min.
same,Increase in blood flow through circumflex branch of left coronary (Δ% ± standard error),[2]; [9],54.4 ± 11.3 Δ%
same,Mean change in blood pressure (ΔmmHg ± standard error),[2]; [9],-11.0 ± 3.5 ΔmmHg
same,Change in heart rate (Δbeats/min. ± standard error),[2]; [10],-26.4 ± 3.8 Δbeats/min.
same,Increase in blood flow through circumflex branch of left coronary (Δ% ± standard error),[2]; [10],50.7 ± 12.7 Δ%
same,Mean change in blood pressure (ΔmmHg ± standard error),[2]; [10],-11.2 ± 3.9 ΔmmHg
same,Kb,[3],37.2 nM
same,activation at 10 µg/heart,[4],98.6 ± 10.6%
same,LD50 at 72 h,[5],1060 mg/kg
CCCOP(=O)(Cc1ccc(-c2nc3ccccc3s2)cc1)OCCC [1-(benzothiazol-2-yl)-4-di-n-propyloxyphosphinylmethylbenzene],activation at 10 µg/heart,[4],65.1 ± 12.2%
same,LD50 at 72 h,[5],> 2250 mg/kg
CC(C)OP(=O)(Cc1ccc(-c2nc3ccccc3s2)cc1)OC(C)C [1-(benzothiazol-2-yl)-4-di-iso-propyloxyphosphinylmethylbenzene],Kb,[6]; test compound 3 × 10^-6 g/ml,776 nM
same,activation at 10 µg/heart,[4],90.7 ± 31.7%
same,LD50 at 72 h,[5],1660 mg/kg
COP(=O)(Cc1ccc(-c2nc3ccccc3s2)nc1)OC [2-(benzothiazol-2-yl)-5-dimethoxyphosphinylmethylpyridine],activation at 10 µg/heart,[4],28.6 ± 3.8%
"COc1ccc([C@@H]2Sc3ccccc3N(CCN(C)C)C(=O)[C@@H]2OC(C)=O)cc1 [Diltiazem, reference compound]",Change in heart rate (Δbeats/min. ± standard error),[1],-20.5 ± 7.8 Δbeats/min.
same,Increase in coronary senus outflow (Δ% ± standard error),[1],67.9 ± 8.5 Δ%
same,Mean change in blood pressure (ΔmmHg ± standard error),[1],-21.4 ± 6.1 ΔmmHg
same,Change in heart rate (Δbeats/min. ± standard error),[2]; [7],1.6 ± 2.0 Δbeats/min.
same,Increase in blood flow through circumflex branch of left coronary (Δ% ± standard error),[2]; [7],1.8 ± 1.8 Δ%
same,Mean change in blood pressure (ΔmmHg ± standard error),[2]; [7],-2.4 ± 1.3 ΔmmHg
same,Change in heart rate (Δbeats/min. ± standard error),[2]; [8],-13.2 ± 1.2 Δbeats/min.
same,Increase in blood flow through circumflex branch of left coronary (Δ% ± standard error),[2]; [8],34.4 ± 8.2 Δ%
same,Mean change in blood pressure (ΔmmHg ± standard error),[2]; [8],-11.0 ± 1.3 ΔmmHg
same,Increase in blood flow through circumflex branch of left coronary (Δ% ± standard error),[2]; [9],33.0 ± 12.2 Δ%
same,Mean change in blood pressure (ΔmmHg ± standard error),[2]; [9],-14.4 ± 2.3 ΔmmHg
same,Change in heart rate (Δbeats/min. ± standard error),[2]; [10],-23.6 ± 4.0 Δbeats/min.
same,Increase in blood flow through circumflex branch of left coronary (Δ% ± standard error),[2]; [10],34.8 ± 15.1 Δ%
same,Mean change in blood pressure (ΔmmHg ± standard error),[2]; [10],-16.0 ± 4.7 ΔmmHg
same,activation at 10 µg/heart,[4],66 ± 7.1%
COP(=O)(Cc1ccc(-c2nc3ccccc3s2)cc1)OC [1-(benzothiazol-2-yl)-4-dimethoxyphosphinylmethylbenzene],activation at 10 µg/heart,[4],38.5 ± 13.6%
same,LD50 at 72 h,[5],1070 mg/kg
CCCOP(=O)(Cc1ccc(-c2nc3ccccc3s2)nc1)OCCC [2-(benzothiazol-2-yl)-5-di-n-propyloxyphosphinylmethylpyridine],Kb,[6]; test compound 1 × 10^-6 g/ml,1120 nM
same,activation at 10 µg/heart,[4],66 ± 21.6%
same,LD50 at 72 h,[5],713 mg/kg
CCCCOP(=O)(Cc1ccc(-c2nc3ccccc3s2)nc1)OCCCC [2-(benzothiazol-2-yl)-5-di-n-butyloxyphosphinylmethylpyridine],Kb,[6]; test compound 1 × 10^-6 g/ml,4070 nM
same,activation at 10 µg/heart,[4],50.3 ± 10.8%
CCCCOP(=O)(Cc1ccc(-c2nc3ccccc3s2)cc1)OCCCC [1-(benzothiazol-2-yl)-4-di-n-butyloxyphosphinylmethylbenzene],activation at 10 µg/heart,[4],65.1 ± 22.8%
same,LD50 at 72 h,[5],> 2250 mg/kg
CCOP(=O)(Cc1ccc(-c2nc3ccccc3s2)cc1)OCC [1-(benzothiazol-2-yl)-4-diethoxyphosphinylmethylbenzene],Change in heart rate (Δbeats/min. ± standard error),[1],-11.2 ± 2.1 Δbeats/min.
same,Increase in coronary senus outflow (Δ% ± standard error),[1],42.8 ± 6.2 Δ%
same,Mean change in blood pressure (ΔmmHg ± standard error),[1],-10.0 ± 3.6 ΔmmHg
same,Kb,[3],120 nM
same,activation at 10 µg/heart,[4],83.8 ± 9%
same,LD50 at 72 h,[5],962 mg/kg
CC(C)OP(=O)(Cc1ccc(-c2nc3ccccc3s2)nc1)OC(C)C [2-(benzothiazol-2-yl)-5-di-iso-propyloxyphosphinylmethylpyridine],Kb,[6]; test compound 1 × 10^-6 g/ml,2570 nM
same,activation at 10 µg/heart,[4],79.9 ± 13.1%
same,LD50 at 72 h,[5],> 2250 mg/kg

# Source: patent US4232010A, “Calcium-antagonistic composition” (Kanebo, Ltd., priority 1978, dated 1980)
